According to BindingDB's records for patent US12544374 (Novartis, 2026):

Columns and labels:
[1] = biological target: T1, Histone-lysine N-methyltransferase EZH2/Polycomb protein EED/Polycomb protein SUZ12 (Human, UniProt O75530+Q15022+Q15910); experiment: EZH2 LC-MS Assay
Method: Representative compounds of the invention were serially and separately diluted 3-fold in DMSO to obtain twelve concentrations. […] Solutions (6 μL) of 80 nM wild type PRC2 (wtPRC2) complex and 60 μM SAM in reaction buffer (20 mM Tris, pH 8.0, 0.1% BSA, 0.01% Triton, 0.5 mM DTT) were added to the wells that were then incubated with the test compound for 20 min. A 6 μL solution of 3 μM of the substrate peptide H3K27me1 (histone H3[21-44]-K27me1-biotin) and 6 μM regulatory peptide H3K27me3 (histone H3[21-44]-K27me3) in reaction buffer was added to initiate each reaction. […] The data were fit to a dose response equation using the program Helios to get the IC50 values of the test compound.

[2] = biological target: T1, Histone-lysine N-methyltransferase EZH2/Polycomb protein EED/Polycomb protein SUZ12; experiment: ELISA Assay
Method: ELISA protocol: Cell lysates were transferred to the wells of a 384-well plate and the final volume was adjusted to 50 μL per well with PBS. The plate was sealed, centrifuged at 2,000 rpm for 2 min and incubated at 4° C. for about 16 h. The plate was washed with TBST buffer (1×TBS (10×TBS: 24.2 g Tris (Sigma, T6066), 80 g NaCl (Sigma, S3014) to 1 L of water and adjust pH to 7.6 with HCl) with 0.1% Tween-20). Blocking buffer (TBST, 5% BSA; 50 μL per well) was added and the plate was incubated for 1 h at rt. The blocking buffer was removed and primary antibody was added (30 μL per well). […] The primary antibody was incubated in the plate at rt for 1 h. The wells were washed with TBST and incubated with secondary antibody for 1 h at rt.

T1 sequence (Q15910 whole entry): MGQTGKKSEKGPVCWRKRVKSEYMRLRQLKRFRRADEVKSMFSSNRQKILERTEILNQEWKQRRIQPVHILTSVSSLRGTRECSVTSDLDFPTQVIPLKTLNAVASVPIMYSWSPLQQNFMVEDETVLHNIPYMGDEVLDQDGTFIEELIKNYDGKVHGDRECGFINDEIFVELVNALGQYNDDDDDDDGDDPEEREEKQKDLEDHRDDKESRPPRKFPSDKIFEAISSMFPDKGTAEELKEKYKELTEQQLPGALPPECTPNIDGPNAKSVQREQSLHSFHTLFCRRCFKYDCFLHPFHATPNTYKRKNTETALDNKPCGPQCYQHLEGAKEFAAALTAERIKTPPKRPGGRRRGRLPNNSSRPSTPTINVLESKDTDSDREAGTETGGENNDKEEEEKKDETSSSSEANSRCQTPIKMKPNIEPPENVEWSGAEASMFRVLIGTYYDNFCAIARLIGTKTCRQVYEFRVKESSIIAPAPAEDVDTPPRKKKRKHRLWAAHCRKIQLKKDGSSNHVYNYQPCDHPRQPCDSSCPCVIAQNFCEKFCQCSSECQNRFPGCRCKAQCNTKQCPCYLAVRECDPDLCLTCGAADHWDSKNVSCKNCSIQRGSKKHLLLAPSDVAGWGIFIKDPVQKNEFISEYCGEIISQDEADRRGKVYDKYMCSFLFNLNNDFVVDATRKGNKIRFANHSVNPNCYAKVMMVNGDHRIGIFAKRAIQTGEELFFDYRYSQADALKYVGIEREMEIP
T1 sequence (O75530 whole entry): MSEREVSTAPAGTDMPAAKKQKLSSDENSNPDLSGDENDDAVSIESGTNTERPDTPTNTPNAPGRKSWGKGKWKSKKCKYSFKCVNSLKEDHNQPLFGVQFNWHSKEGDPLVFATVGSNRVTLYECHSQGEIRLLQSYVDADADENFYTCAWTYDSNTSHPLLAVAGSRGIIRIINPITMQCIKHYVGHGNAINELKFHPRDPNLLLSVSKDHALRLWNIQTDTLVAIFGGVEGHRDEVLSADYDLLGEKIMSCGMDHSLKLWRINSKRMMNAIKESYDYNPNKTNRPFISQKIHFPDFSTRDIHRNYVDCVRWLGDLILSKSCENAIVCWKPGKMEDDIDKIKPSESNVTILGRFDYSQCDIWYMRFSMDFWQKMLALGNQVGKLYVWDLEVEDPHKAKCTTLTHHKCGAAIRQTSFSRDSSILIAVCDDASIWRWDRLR
T1 sequence (Q15022 whole entry): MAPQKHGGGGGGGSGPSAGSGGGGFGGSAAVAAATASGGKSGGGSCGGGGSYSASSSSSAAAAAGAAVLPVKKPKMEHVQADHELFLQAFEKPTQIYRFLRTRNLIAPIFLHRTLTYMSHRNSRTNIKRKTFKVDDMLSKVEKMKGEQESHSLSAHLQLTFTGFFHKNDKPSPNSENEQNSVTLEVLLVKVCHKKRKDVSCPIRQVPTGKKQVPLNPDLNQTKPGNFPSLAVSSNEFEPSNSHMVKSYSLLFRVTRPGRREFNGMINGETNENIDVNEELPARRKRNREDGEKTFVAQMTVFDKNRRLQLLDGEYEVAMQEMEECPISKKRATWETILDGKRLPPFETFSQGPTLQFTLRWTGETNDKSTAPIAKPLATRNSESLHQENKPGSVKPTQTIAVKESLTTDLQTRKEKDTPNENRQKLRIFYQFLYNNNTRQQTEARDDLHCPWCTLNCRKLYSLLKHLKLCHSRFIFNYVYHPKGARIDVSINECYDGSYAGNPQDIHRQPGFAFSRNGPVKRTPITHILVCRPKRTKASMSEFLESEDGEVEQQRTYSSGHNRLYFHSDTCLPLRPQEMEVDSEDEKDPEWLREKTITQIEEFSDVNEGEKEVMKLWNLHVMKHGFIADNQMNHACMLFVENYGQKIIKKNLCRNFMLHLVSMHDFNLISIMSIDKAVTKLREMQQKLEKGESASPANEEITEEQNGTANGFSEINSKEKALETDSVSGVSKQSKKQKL

Which IC50 [1] does the source give for `Clc1nccc2ccc(NC3CCC(CNc4ncc(COC5COC5)cn4)CC3)nc12` (stereo not drawn) [US12544374, Compound C35] here?
Its IC50 is 27 nM.

Which IC50 [2] does the source give for `COCCOC(=O)Nc1cnc(NCC2CCC(Nc3ccc4ccnc(Cl)c4n3)CC2)nc1` (stereo not drawn) [US12544374, Compound C16] here?
Its IC50 is 27 nM.

What about the IC50 [1] of the same molecule?
Its IC50 is 15 nM.
